One assay concerns the target T1, 11β-HSD2 (Ovis aries, UniProt P50168).
T1 construct: incubating sheep kidney microsomal fraction (6.5 μg protein) with 50 nM corticosterone; from tissue; host or cells: sheep kidney microsomal fraction
T1 sequence (P50168 1-427): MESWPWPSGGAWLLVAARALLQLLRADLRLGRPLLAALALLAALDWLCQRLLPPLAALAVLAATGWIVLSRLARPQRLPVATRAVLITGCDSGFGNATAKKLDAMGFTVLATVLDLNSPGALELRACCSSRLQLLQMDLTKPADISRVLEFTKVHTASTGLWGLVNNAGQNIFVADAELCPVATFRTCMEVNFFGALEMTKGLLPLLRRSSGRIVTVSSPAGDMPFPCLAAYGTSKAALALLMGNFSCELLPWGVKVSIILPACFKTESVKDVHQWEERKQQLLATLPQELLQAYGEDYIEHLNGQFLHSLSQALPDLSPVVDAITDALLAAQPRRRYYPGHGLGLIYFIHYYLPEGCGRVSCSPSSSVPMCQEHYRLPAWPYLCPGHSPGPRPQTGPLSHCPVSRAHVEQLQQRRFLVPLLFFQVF
The assay is described as follows: 11β-HSD2 enzyme activity in sheep kidney microsomes. It is filed as biochemical. The text has this:
The enzymatic reaction was termninated by addition of methanol and synthesis of 11-dehydro-corticosterone was quantitated by HPLC as described above.

The next assay has as its system normotensive SD rats. Conditions: infused into normotensive SD rats; cited from earlier work.
Another assay concerns the target 11β-HSD1 Reductase (Rattus norvegicus, UniProt P16232). The assay is described as follows: 11β-HSD1 reductase assay in rat Leydig cell homogenates.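 Note: rat Leydig cell homogenate incubated 20 min at 37 °C, pH 7.4, with tritiated 11-dehydro-corticosterone and 3 mM NADPH, product measured by HPLC, inhibition from triplicate dose–response curves.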 The note with it: read-out: Leydig Cell 11β-HSD1 Reductase [S] = 600 nM; rat Leydig cell homogenates, 600 nM 11-dehydro-corticosterone; progesterone and androgen derivatives.
The target in the next assay is 11β-HSD1 Dehydrogenase (Rattus norvegicus, UniProt P16232). The assay is described as follows: 11β-HSD1 dehydrogenase assay in rat Leydig cell homogenates.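 Note: tritiated corticosterone conversion by 11β-HSD1 dehydrogenase in Leydig homogenates with 3 mM NADP at pH 8.4, 37 °C for 10 min, products resolved by HPLC, inhibition relative to uninhibited enzyme.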 It is filed as biochemical. Also on record: Freshly prepared rat Leydig cell homogenates were chosen since they provide a rich and reliable source of both 11β-HSD1 dehydrogenase and reductase; from tissue; host or cells: rat testicular Leydig cells, homogenate.

“Also recorded” adds a separate entry of the source.

11β-HSD1 Dehydrogenase, sequence (P16232 whole entry): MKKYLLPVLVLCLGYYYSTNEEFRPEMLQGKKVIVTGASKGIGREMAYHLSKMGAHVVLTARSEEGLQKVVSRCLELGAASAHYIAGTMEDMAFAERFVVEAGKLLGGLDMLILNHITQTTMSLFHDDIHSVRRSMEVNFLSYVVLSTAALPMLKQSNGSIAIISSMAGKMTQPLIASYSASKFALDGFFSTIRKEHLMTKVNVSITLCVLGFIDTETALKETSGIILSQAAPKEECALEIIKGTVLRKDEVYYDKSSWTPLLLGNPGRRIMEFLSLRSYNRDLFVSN
11β-HSD1 Reductase, sequence (P16232 whole entry): as above
Experimental for 11β-HSD1 Dehydrogenase: (§1) Each enzyme reaction (described below) was stopped by adding 750 μL MeOH. After centrifugation, an aliquot of supernatant was analyzed by HPLC using a DuPont Zorbax C8 column.
(§2) 11β-HSD1 dehydrogenase was assayed by incubating homogenates (13,000 cells equivalent) with 600 nM [^3H]-B (0.5 μCi) in the presence of 3 mM NADP, 50 mM Tris-HCl; pH 8.4 at 37° C. for 10 minutes in a total volume of 250 μL. 11β-HSD1 reductase was assayed by incubating homogenates (52,000 cells equivalent) with 600 nM [^3H]-11-dehydro-corticosterone in presence of 3 mM NADPH, 50 mM Tris-HCl; pH 7.4 at 37° C. for 20 minutes in a total volume of 250 μL.
(§3) Each concentration was tested in triplicate and the dose response curve, showing percentage inhibition versus log concentration of steroid was plotted. The data fitted a log-linear straight line.
Experimental for 11β-HSD1 Reductase: as §1, §2, §3

`CC(=O)[C@H]1CC[C@H]2[C@@H]3CC[C@H]4C[C@H](O)CC[C@]4(C)[C@H]3[C@@H](O)C[C@]12C` [11β-OH-allopregnanolone, 5α-Pregnan-3α,11β-diol-2O-one]: the IC50 was 120 nM at 11β-HSD2 (sheep kidney microsomes, corticosterone substrate, progesterone and androgen derivatives, read-out: Sheep kidney 11β-HSD2 [S] = 50 nM); over 100000 nM at 11β-HSD1 Reductase; 3000 nM on 11β-HSD1 Dehydrogenase (rat Leydig cell homogenates, 600 nM corticosterone, progesterone and androgen derivatives, read-out: Leydig Cell 11β-HSDl Dehydrogenase [S] = 600 nM). Further, on 11β-HSD2 (summary of the screening), the “inhibitors of 11β-HSD2 (summary in words)” value is “potent inhibitors; also recorded: high potency”. For the same compound, in the assay with normotensive SD rats, the blood pressure entry was “increased BP”. For the same compound, the “inhibitors of 11β-HSD1 dehydrogenase (summary in words)” value against 11β-HSD1 Dehydrogenase (summary of the screening) is given as “potent inhibitors; also recorded: high potency”.

The values above are taken from patent publication US20070093460A1, “Methods of using selective 11beta-HSD inhibitors to treat gluocorticoid associated states” (priority 2005, published 2007).
